Structures are written as SMILES.

Experiment [1] can be described thus: in vitro thermal shift (binding of compound to the target). To be noted: thermal shift caused by binding of the compound to the (unnamed) target.
The test system of the next experiment is Arabidopsis thaliana. In words: HTPS (high throughput on soil) - Dicot - Post-emergence. Format: in vivo. Conditions: N/A: not active; for Emax: read-out: HTPS - Dicot - Post Max effect; for HTPS - Dicot - Post ED50: from normalized green area. The procedure, abridged: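 Single plants per well in sand, greenhouse-grown; at 2-true-leaf stage 5 μL compound in 50% acetone/0.1% tween-20 applied to leaves, top dose 1.5 Kg/Ha, 2.5-fold dilutions, 8 repeats. Green area imaged (11 and 18 DAA) for % inhibition; ED50/ED75/ED90 fitted from dose-response, t-test versus controls.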

A further experiment deals with POAAN. In words: In-planta LTP pre-emergence, visual phenotype. Format: in vivo, Poa annua. Conditions: monocot; for pest or weed control at 2000 g/ha: Poa annua, 432 h, read-out: IG Inhibited growth (% effect). On the procedure: (§1) A basic panel of 8 weed species (Table 3) were sowed in 4×4×7 cm plastic pots containing inert sand (Sweet sand), intensively washed using osmosis water. Each specie was sowed in a separate pot. In each pot 10-15 seeds were sowed according to the specie viability. Sowing was performed one day before application. The plants were grown for 21 days in a controlled greenhouse (26±2° C. day 20±2° C. night). Hood irrigation (tap water+Shefer 5:3:8 8 mM) was given at a 50% water content by weight. Compounds were soluble in water (DDW), and commercial herbicide control was soluble in formulation B (Table 4). Application was conducted with an industrial sprayer (TeeJet 6502E nozzle) at a rate of 2 kg/ha and spray volume of […]. Pre-emergence advanced dose response experiment application was conducted at six rates between 1-0.0312 kg/ha and spray volume of […]. Percentage of emergence was evaluated at 15 DAA. Visual phenotyping was recorded using a scale of 0-6 (0: no visible effect, 6: maximum effect) at 18 DAA. All experiments included an untreated control, a solvent control and a positive control (commercial herbicide A.I.). Statistical analysis for visual phenotyping determined by a median value of ≥3.5 and Fisher test (pval≤0.05). Statistical analysis for plant emergence determined by % emergence ≥50 and T test (pval≤0.05), as well as Wilcox test (pval≤0.05).

Experiment [2] concerns AMAPA. The experiment in a line: In-planta LTP pre-emergence, visual phenotype. Format: in vivo, Amaranthus palmeri. To be noted: dicot; for pest or weed control at 2000 g/ha: Amaranthus palmeri, 432 h, read-out: IG Inhibited growth (% effect). The method, then: as §1
The subject of experiment [3] is AMAPA. In words: In-planta LTP post-emergence, visual phenotype. Format: in vivo, Amaranthus palmeri. To be noted: dicot. On the procedure:
A basic panel of eight weed species (Table 3) sowed in 4×4×7 cm plastic pots containing a garden mix (klasmann). Each specie was sowed in a separate pot. In each pot, 10-15 seeds were sowed according to the specie viability. Timing of application determined at a 1-2 true leaf stage. The plants grew for 30 days in a controlled greenhouse (26±2° C. day, 20±2° C. night). Hood irrigation (tap water+Shefer 5:3:8 8 mM) was given at a 50% water content by weight. Two days before application, the tested plants thinned down to three plants per pot. Compounds were soluble in water (DDW), and commercial herbicide control was soluble in formulation B (Table 4). Before application, 1% (v/v) crop oil and 0.02% (v/v) surfactant (Tergitol™ 15-5-7) were added to the solution. Application was conducted with an industrial sprayer (TeeJet 6502E nozzle) at a rate of 2 kg/ha and spray volume of […]. Plants were evaluated at 3 time points (4, 8, 12 days after application (DAA)). At each time point, visual phenotyping was recorded using a scale of 0-6 (0: no visible effect, 6: maximum effect). At 12 DAA, plants foliage was harvested, dried and weighed for dry weight analysis.
Post-emergence advanced dose response experiment included 4 species: SETVI, ECHCO, AMAPA, ABUTH (Tables 3, 5). Application was conducted at six rates between 0.6-0.0187 kg/ha and spray volume of […]. Plants were evaluated at 4 time points (6, 12, 18 and 26 DAA). At each time point, visual phenotyping was recorded using a scale of 0-6 (0: no visible effect, 6: maximum effect). At 26 DAA, plants foliage was harvested, dried and weighed for dry weight analysis.
Post-emergence advanced wide panel experiment included 24 weed species (Table 5). Application was conducted at 2 rates of 2 kg/ha and 0.25 kg/ha and spray volume of […]. Visual phenotyping was recorded at 4, 11, 17 and 20 DAA using a scale of 0-6 (0: no visible effect, 6: maximum effect). At 21 DAA, plants foliage was harvested, dried, and weighed for dry weight analysis. All experiments included an untreated control, a solvent control, and a positive control (commercial herbicide A.I.). Statistical analysis for visual phenotyping determined by a median value of ≥3.5 and Fisher test (pval≤0.05). Statistical analysis for dry weight determined by % inhibition ≥50 and T test (pval≤0.05), as well as Wilcox test (pval≤0.05).

In another experiment the test system is LOLPE. In words: In-planta LTP pre-emergence, visual phenotype. Conditions: monocot. Format: in vivo, Lolium perenne. On the procedure: as §1

Turning to `C#CCOC(=O)c1cccc(OCC(C)N)c1` (stereo not shown) [Compound 111], the “in vitro Thermal Shift” value in experiment [1] worked out at 4 °C. In addition, in the experiment with Arabidopsis thaliana, the Emax worked out at 100% and the “HTPS - Dicot - Post ED50” value was 51 g/ha. In addition, in the experiment on POAAN, the pest or weed control at 2000 g/ha amounted to 100% and the “DE Disturbed emergence (% effect)” value is on record as “DE (100), %”. Besides, the pest or weed control at 2000 g/ha with AMAPA [2] came to 60%. The “BL Bleaching (% effect)” value with AMAPA [3] was “BL (40) %”.
For the compound `C[C@@H](N)COc1cccc(C(=O)O)c1` [Compound 154], the “in vitro Thermal Shift” value in experiment [1] is 13 °C. In addition, in the experiment with Arabidopsis thaliana, the Emax is 100% and the “HTPS - Dicot - Post ED50” value turned out to be 16 g/ha. Also, the “IG Inhibited growth (% effect)” value in the experiment on LOLPE is given as “IG (60) %”. Further, the “DE Disturbed emergence (% effect)” value with POAAN is given as “DE (100) %”. For the same compound, the pest or weed control at 2000 g/ha with AMAPA [2] came out at 60%. Besides, in the experiment on AMAPA [3], the “BL Bleaching (% effect)” value is on record as “BL (60) %”.
For the compound `CCCCOC(=O)c1cccc(OCC(C)N)c1` (stereo not shown) [Compound 112], the “in vitro Thermal Shift” value in experiment [1] amounted to 4 °C. Also, the Emax in the experiment on Arabidopsis thaliana amounted to 100%. In addition, the “HTPS - Dicot - Post ED50” value with Arabidopsis thaliana is 300 g/ha. For the same compound, the “IG Inhibited growth (% effect)” value in the experiment on LOLPE is on record as “IG (40) %”; in the experiment on AMAPA [3], “IG (60), %”. For the same compound, the figures for the pest or weed control at 2000 g/ha with POAAN and in the experiment with AMAPA [2] were 100% and 60%, respectively. Besides, in the experiment with POAAN, the “DE Disturbed emergence (% effect)” value is given as “DE (100), %”.
As for `CC(N)COc1cccc(C(=O)O)c1` (stereo not shown) [Compound 106], in experiment [1], the “in vitro Thermal Shift” value amounted to 13 °C. Further, in the experiment on Arabidopsis thaliana, the Emax stood at 100% and the “HTPS - Dicot - Post ED50” value worked out at 102 g/ha. For the same compound, in the experiment on LOLPE, the “DE Disturbed emergence (% effect)” value was “DE (60) %”. For the same compound, in the experiment on POAAN, the pest or weed control at 2000 g/ha came out at 100% and the “DE Disturbed emergence (% effect)” value is given as “DE (100) %”. For the same compound, in the experiment with AMAPA [2], the pest or weed control at 2000 g/ha was 60% and the “DAB Disturbed apical bud (% effect)” value was “DAB (60), %”. In the experiment on AMAPA [3], the “BL Bleaching (% effect)” value is recorded as “BL^2 (60) %”.

For the origin of these results see US20240336567A1, “PESTICIDAL AND HERBICIDAL COMPOUNDS AND METHODS OF USE THEREOF” (AG Plenus Ltd, priority 2021, published 2024).
